pIC50: −log10 of the molar value. Like-named read-outs stand apart in the source and are kept apart here.
What was measured:
[1] = molecular target: AktK (Homo sapiens, UniProt P31749); assay: Luciferase-coupled chemiluminescence kinase assay (ATP consumption); type: biochemical; details: read-out: AKT-1 IC50
Summary of the method: (§1)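 Activity is read as ATP depletion: luciferase-luciferin reagent added after a 3 h ambient-temperature kinase reaction, with total ATP use limited to 25-60%. Before ATP addition, 2.5-5 nM kinase and compound were preincubated 30 min in Tris pH 7.5/MgCl2/TX-100/DTT buffer; […].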

[2] = molecular target: p70S6K (Homo sapiens, UniProt P23443); assay: as above; type: biochemical
Sequence of p70S6K (P23443 whole entry): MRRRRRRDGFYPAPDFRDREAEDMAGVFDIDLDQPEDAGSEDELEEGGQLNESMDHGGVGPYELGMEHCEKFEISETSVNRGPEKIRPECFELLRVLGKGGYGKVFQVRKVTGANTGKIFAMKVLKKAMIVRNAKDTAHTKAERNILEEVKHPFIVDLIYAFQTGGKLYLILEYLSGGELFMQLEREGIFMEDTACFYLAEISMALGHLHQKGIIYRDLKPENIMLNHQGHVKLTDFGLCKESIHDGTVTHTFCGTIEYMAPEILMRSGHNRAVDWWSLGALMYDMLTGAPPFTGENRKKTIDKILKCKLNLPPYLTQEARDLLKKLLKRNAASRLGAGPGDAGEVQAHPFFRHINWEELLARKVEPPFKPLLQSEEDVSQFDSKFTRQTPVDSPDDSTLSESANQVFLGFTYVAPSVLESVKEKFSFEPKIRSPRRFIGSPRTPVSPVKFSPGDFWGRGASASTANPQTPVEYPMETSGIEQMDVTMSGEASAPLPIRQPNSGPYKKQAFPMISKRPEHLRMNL
Summary of the method: as §1

Sequence of AktK (P31749 whole entry): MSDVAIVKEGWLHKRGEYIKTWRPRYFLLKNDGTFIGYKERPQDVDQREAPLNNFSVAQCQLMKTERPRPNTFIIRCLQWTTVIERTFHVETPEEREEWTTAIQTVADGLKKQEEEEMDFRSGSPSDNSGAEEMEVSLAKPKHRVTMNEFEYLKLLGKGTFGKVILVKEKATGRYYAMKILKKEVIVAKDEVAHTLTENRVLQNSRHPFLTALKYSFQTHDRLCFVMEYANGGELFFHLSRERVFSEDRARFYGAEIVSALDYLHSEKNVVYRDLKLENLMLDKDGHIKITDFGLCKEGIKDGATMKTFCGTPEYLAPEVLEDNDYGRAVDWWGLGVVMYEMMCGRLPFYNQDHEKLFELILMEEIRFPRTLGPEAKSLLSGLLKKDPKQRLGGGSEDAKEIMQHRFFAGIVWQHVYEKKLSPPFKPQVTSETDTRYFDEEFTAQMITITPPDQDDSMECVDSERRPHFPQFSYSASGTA

| SMILES | pIC50 ([1]; Table 1, class symbols per key) | pIC50 ([2]; Table 1, class symbols per key) | pIC50 [1] | pIC50 [2] |
| --- | --- | --- | --- | --- |
| Cc1c(NCCN2CCCC2)cc(C(=O)O)cc1N1CCN(c2ncnc3[nH]nc(Br)c23)CC1 [Entry 234, 3-[4-(3-bromo-1H-pyrazolo[3,4-d]pyrimidin-4-yl)piperazin-1-yl]-4-methyl-5-[(2-pyrrolidin-1-ylethyl)amino]benzoic acid] | 5.00 to 6.00 | > 7.00 |  |  |
| Cc1nc(N2CCN(c3cc(Cl)ccc3C)CC2)c2cn[nH]c2n1 [Entry 324, 4-[4-(5-chloro-2-methylphenyl)piperazin-1-yl]-6-methyl-1H-pyrazolo[3,4-d]pyrimidine] |  |  | 5.00 to 6.00 | 5.00 to 6.00 |
| CCNC(=O)COc1cccc(N2CCN(c3ncnc4[nH]nc(Br)c34)CC2)c1 [Entry 139, 2-({3-[4-(3-bromo-1H-pyrazolo[3,4-d]pyrimidin-4-yl)piperazin-1-yl]phenyl}oxy)-N-ethylacetamide] | 5.00 to 6.00 | > 7.00 |  |  |
| Cc1cccc(COc2cccc(N3CCN(c4ncnc5[nH]nc(Br)c45)CC3)c2)c1 [Entry 141, 3-bromo-4-[4-(3-{[(3-methylphenyl)methyl]oxy}phenyl)piperazin-1-yl]-1H-pyrazolo[3,4-d]pyrimidine] | ≤ 5.00 | 6.00 to 7.00 |  |  |
| Cc1c(NCCN2CCCC2)cc(OCCC(C)C)cc1N1CCN(c2ncnc3[nH]nc(Br)c23)CC1 [Entry 206, 3-[4-(3-bromo-1H-pyrazolo[3,4-d]pyrimidin-4-yl)piperazin-1-yl]-2-methyl-5-[(3-methylbutyl)oxy]-N-(2-pyrrolidin-1-ylethyl)aniline] | > 7.00 | > 7.00 |  |  |
| CCCOc1cc(NCCN2CCCC2)c(C)c(N2CCN(c3ncnc4[nH]nc(Br)c34)CC2)c1 [Entry 224, 3-[4-(3-bromo-1H-pyrazolo[3,4-d]pyrimidin-4-yl)piperazin-1-yl]-2-methyl-5-(propyloxy)-N-(2-pyrrolidin-1-ylethyl)aniline] | > 7.00 | > 7.00 |  |  |
| CCc1n[nH]c2ncnc(N3CCN(c4nc(C)cnc4C)CC3)c12 [Entry 101, 4-[4-(3,6-dimethylpyrazin-2-yl)piperazin-1-yl]-3-ethyl-1H-pyrazolo[3,4-d]pyrimidine] | ≤ 5.00 | 6.00 to 7.00 |  |  |
| Cc1cc(N2CCN(c3ncnc4[nH]nc(Br)c34)CC2)c2ccccc2n1 [Entry 120, 4-[4-(3-bromo-1H-pyrazolo[3,4-d]pyrimidin-4-yl)piperazin-1-yl]-2-methylquinoline] | ≤ 5.00 | > 7.00 |  |  |
| CCc1n[nH]c2ncnc(N3CCN(c4cc(Cl)cc(CCCN5CCCC5)c4C)CC3)c12 [Entry 403, 4-{4-[5-chloro-2-methyl-3-(3-pyrrolidin-1-ylpropyl)phenyl]piperazin-1-yl}-3-ethyl-1H-pyrazolo[3,4-d]pyrimidine] |  |  | 6.00 to 7.00 | > 7.00 |
| Cc1c(NCCN(C)C(C)C)cc(Cl)cc1N1CCN(c2ncnc3[nH]nc(Br)c23)CC1 [Entry 193, N′-{3-[4-(3-bromo-1H-pyrazolo[3,4-d]pyrimidin-4-yl)piperazin-1-yl]-5-chloro-2-methylphenyl}-N-methyl-N-(1-methylethyl)ethane-1,2-diamine] | > 7.00 | > 7.00 |  |  |
| Cc1c(CCC[n+]2ccccc2)cc(-c2ccccc2)cc1N1CCN(c2ncnc3[nH]nc(Br)c23)CC1 [Entry 232, 1-(3-{5-[4-(3-bromo-1H-pyrazolo[3,4-d]pyrimidin-4-yl)piperazin-1-yl]-4-methylbiphenyl-3-yl}propyl)pyridinium] | > 7.00 | > 7.00 |  |  |
| CCc1n[nH]c2ncnc(N3CCN(c4cccc(Cl)c4)C(CO)C3)c12 (centres unmarked) [Entry 379, [1-(3-chlorophenyl)-4-(3-ethyl-1H-pyrazolo[3,4-d]pyrimidin-4-yl)piperazin-2-yl]methanol] |  |  | 5.00 to 6.00 | > 7.00 |
| Cc1ccc(C(=O)Nc2ccccc2)cc1N1CCN(c2ncnc3[nH]nc(Br)c23)CC1=O [Entry 199, 3-[4-(3-bromo-1H-pyrazolo[3,4-d]pyrimidin-4-yl)-2-oxopiperazin-1-yl]-4-methyl-N-phenylbenzamide] | 5.00 to 6.00 | > 7.00 |  |  |
| Cc1c(CCCN2CCCC2)cc(Cl)cc1N1CCN(c2ncnc3[nH]ncc23)CC1 [Entry 59, 4-{4-[5-chloro-2-methyl-3-(3-pyrrolidin-1-ylpropyl)phenyl]piperazin-1-yl}-1H-pyrazolo[3,4-d]pyrimidine] | 5.00 to 6.00 | > 7.00 |  |  |
| Cc1c(NCCN2CCCC2)cc(OCC2CCCC2)cc1N1CCN(c2ncnc3[nH]nc(Br)c23)CC1 [Entry 218, 3-[4-(3-bromo-1H-pyrazolo[3,4-d]pyrimidin-4-yl)piperazin-1-yl]-5-[(cyclopentylmethyl)oxy]-2-methyl-N-(2-pyrrolidin-1-ylethyl)aniline] | > 7.00 | > 7.00 |  |  |
| Cc1c(CCCN2CCCC2)cc(Cl)cc1N1CCN(c2ncnc3[nH]nc(C(F)(F)F)c23)CC1 [Entry 61, 4-{4-[5-chloro-2-methyl-3-(3-pyrrolidin-1-ylpropyl)phenyl]piperazin-1-yl}-3-(trifluoromethyl)-1H-pyrazolo[3,4-d]pyrimidine] | > 7.00 | > 7.00 |  |  |

| SMILES | pIC50 ([1]; Table 1, class symbols per key) | pIC50 ([2]; Table 1, class symbols per key) | pIC50 [1] | pIC50 [2] |
| --- | --- | --- | --- | --- |
| CCN(CC)CCOc1cccc(N2CCN(c3ncnc4[nH]nc(Br)c34)CC2)c1 [Entry 189, 2-({3-[4-(3-bromo-1H-pyrazolo[3,4-d]pyrimidin-4-yl)piperazin-1-yl]phenyl}oxy)-N,N-diethylethanamine] | ≤ 5.00 | 6.00 to 7.00 |  |  |
| Cc1ccc(Cl)cc1N1CCN(c2ncnc3[nH]nc(-c4ccc(Oc5ccccc5)cc4)c23)CC1 [Entry 358, 4-[4-(5-chloro-2-methylphenyl)piperazin-1-yl]-3-[4-(phenyloxy)phenyl]-1H-pyrazolo[3,4-d]pyrimidine] |  |  | 5.00 to 6.00 | 6.00 to 7.00 |
| Cc1ccc(Cl)cc1N1CCN(c2ncnc3[nH]nc(C=C4C[C@@H]5CN(C(=O)OCc6ccccc6)C[C@@H]5C4)c23)CC1 [Entry 395, phenylmethyl (3aR,6aS)-5-({4-[4-(5-chloro-2-methylphenyl)piperazin-1-yl]-1H-pyrazolo[3,4-d]pyrimidin-3-yl}methylidene)hexahydrocyclo-penta[c]pyrrole-2(1H)-carboxylate] |  |  | 5.00 to 6.00 | 5.00 to 6.00 |
| Cc1c(NCCN2CCCC2)cc(CO)cc1N1CCN(c2ncnc3[nH]nc(Br)c23)CC1 [Entry 268, {3-[4-(3-bromo-1H-pyrazolo[3,4-d]pyrimidin-4-yl)piperazin-1-yl]-4-methyl-5-[(2-pyrrolidin-1-ylethyl)amino]phenyl}methanol] | 6.00 to 7.00 | > 7.00 |  |  |
| FC(F)(F)c1cccc(N2CCN(c3ncnc4[nH]cnc34)CC2)c1 [Entry 314, 6-{4-[3-(trifluoromethyl)phenyl]piperazin-1-yl}-9H-purine] |  |  | ≤ 5.00 | 6.00 to 7.00 |
| Cc1ccc(-c2cccc(F)c2OCCN2CCCC2)cc1N1CCN(c2ncnc3[nH]nc(Br)c23)CC1 [Entry 282, 3-bromo-4-(4-{3′-fluoro-4-methyl-2′-[(2-pyrrolidin-1-ylethyl)oxy]biphenyl-3-yl}piperazin-1-yl)-1H-pyrazolo[3,4-d]pyrimidine] | > 7.00 | > 7.00 |  |  |
| CCc1n[nH]c2ncnc(N3CCN(c4cc(Cl)ccc4OC)CC3)c12 [Entry 334, 4-{4-[5-chloro-2-(methyloxy)phenyl]piperazin-1-yl}-3-ethyl-1H-pyrazolo[3,4-d]pyrimidine] |  |  | 5.00 to 6.00 | > 7.00 |
| Cc1cc(F)c(-c2ccc(F)c(F)c2)cc1N1CCN(c2ncnc3[nH]nc(Br)c23)CC1 [Entry 266, 3-bromo-4-[4-(3′,4′,6-trifluoro-4-methylbiphenyl-3-yl)piperazin-1-yl]-1H-pyrazolo[3,4-d]pyrimidine] | 6.00 to 7.00 | > 7.00 |  |  |
| Fc1ccc(N2CCN(c3ncnc4[nH]nc(Br)c34)CC2)cc1 [Entry 153, 3-bromo-4-[4-(4-fluorophenyl)piperazin-1-yl]-1H-pyrazolo[3,4-d]pyrimidine] | ≤ 5.00 | 6.00 to 7.00 |  |  |
| CCc1n[nH]c2ncnc(N3CCN(c4cc(Cl)cc(C#CCN(C)C)c4C)CC3)c12 [Entry 385, 3-{5-chloro-3-[4-(3-ethyl-1H-pyrazolo[3,4-d]pyrimidin-4-yl)piperazin-1-yl]-2-methylphenyl}-N,N-dimethylprop-2-yn-1-amine] |  |  | 5.00 to 6.00 | > 7.00 |
| CCCC(F)(F)c1cc(NCCN2CCCC2)c(C)c(N2CCN(c3ncnc4[nH]nc(Br)c34)CC2)c1 [Entry 277, 3-[4-(3-bromo-1H-pyrazolo[3,4-d]pyrimidin-4-yl)piperazin-1-yl]-5-(1,1-difluorobutyl)-2-methyl-N-(2-pyrrolidin-1-ylethyl)aniline] | > 7.00 | > 7.00 |  |  |
| Fc1ccc(-c2ccc(Cl)c(N3CCN(c4ncnc5[nH]nc(Br)c45)CC3)c2)c(OCCN2CCCC2)c1 [Entry 289, 3-bromo-4-(4-{4-chloro-4′-fluoro-2′-[(2-pyrrolidin-1-ylethyl)oxy]biphenyl-3-yl}piperazin-1-yl)-1H-pyrazolo[3,4-d]pyrimidine] |  |  | > 7.00 | > 7.00 |
| CCNC(=O)c1cc(NCCN2CCCC2)c(C)c(N2CCN(c3ncnc4[nH]nc(Br)c34)CC2)c1 [Entry 219, 3-[4-(3-bromo-1H-pyrazolo[3,4-d]pyrimidin-4-yl)piperazin-1-yl]-N-ethyl-4-methyl-5-[(2-pyrrolidin-1-ylethyl)amino]benzamide] | > 7.00 | > 7.00 |  |  |
| Cc1c(NCCN2CCCC2)cc(OCC2CCC2)cc1N1CCN(c2ncnc3[nH]nc(Br)c23)CC1 [Entry 211, 3-[4-(3-bromo-1H-pyrazolo[3,4-d]pyrimidin-4-yl)piperazin-1-yl]-5-[(cyclobutylmethyl)oxy]-2-methyl-N-(2-pyrrolidin-1-ylethyl)aniline] | > 7.00 | > 7.00 |  |  |
| CCc1n[nH]c2ncnc(N3CCN(c4cc(Cl)cc(N5CCOCC5)c4C)CC3)c12 [Entry 361, 4-[4-(5-chloro-2-methyl-3-morpholin-4-ylphenyl)piperazin-1-yl]-3-ethyl-1H-pyrazolo[3,4-d]pyrimidine] |  |  | 5.00 to 6.00 | 6.00 to 7.00 |

— US8076338B2, “Kinase modulators and methods of use” (Exelixis, Inc., priority 2004, dated 2011)
